Data on four sequences can be found in patent US20070128217A1 (priority 2003, published 2007).

Assay [1] concerns control sera (pooled serum of ten healthy LUMC hospital workers; commercial negative donor pooled serum from the Dutch bloodbank). The assay is classed as binding, human. Further details: Binding of Control serum LUMC to linear peptides / Binding of Control serum Blood-bank to linear peptides / Binding of Control serum LUMC to looped peptides / Binding of Control Serum Blood-Bank to Looped peptides / Binding of Control serum LUMC to linear peptides of the protein M of SARS-CoV Urbani / Binding of Control serum Blood-bank to linear peptides of the protein M of SARS-CoV Urbani / Binding of Control serum LUMC to looped peptides of the protein M of SARS-CoV Urbani / Binding of Control Serum Blood-Bank to Looped peptides of the protein M of SARS-CoV Urbani: unit not given here.

For assay [2], the system named is rabbit serum obtained by immunizing a rabbit with the SARS-CoV strain Frankfurt 1. The assay is classed as binding. Also on record: Binding of a rabbit serum to linear peptides / Binding of a rabbit serum to looped peptides / Rabbit serum linear peptides / Rabbit serum looped peptides / Binding of a rabbit serum to linear peptides of protein N of SARS-CoV Urbani (Rabbit serum linear peptides) / Binding of a rabbit serum to looped/cyclic peptides of protein N of SARS-CoV Urbani (Rabbit serum looped peptides): unit not given here.

Assay [3] concerns antibodies in sera from SARS patients (sera 1a, 1b, 2, 6, 37, 62, London, SARS-yellow, SARS-green). The class given is binding, human. Further details: Binding of serum 6 to linear peptides of protein X1 of SARS-CoV Urbani / Binding of serum 37 to linear peptides of protein X1 of SARS-CoV Urbani / Binding of serum 6 to looped/cyclic peptide (PEPSCAN-ELISA) / Binding of serum 37 to looped/cyclic peptide (PEPSCAN-ELISA) / Binding of serum 37 to looped/cyclic peptides of protein X1 of SARS-CoV Urbani / Binding of serum 6 to linear peptides of protein X2 / Binding of serum 37 to linear peptides of protein X2 / Binding of serum 37 to looped/cyclic peptides of protein X2 of SARS-CoV Urbani / Binding of serum 6 to linear peptides of protein M of SARS-CoV Urbani / Binding of serum 37 to linear peptides of protein M of SARS-CoV Urbani / Binding of serum 6 to looped/cyclic peptides of protein M of SARS-CoV Urbani / Binding of serum 37 to looped/cyclic peptides of protein M of SARS-CoV Urbani / Binding of serum 6 to linear peptides of protein X3 of SARS-CoV Urbani / Binding of serum 37 to linear peptides of protein X3 of SARS-CoV Urbani / Binding of serum 37 to looped/cyclic peptides of protein X3 of SARS-CoV Urbani / Binding of serum 6 to linear peptides of protein X4 of SARS-CoV Urbani / Binding of serum 37 to linear peptides of protein X4 of SARS-CoV Urbani / Binding of serum 37 to looped/cyclic peptides of protein X4 of SARS-CoV Urbani / Binding of serum 6 to linear peptides of protein X5 of SARS-CoV Urbani / Binding of serum 37 to linear peptides of protein X5 of SARS-CoV Urbani / Binding of serum 37 to looped/cyclic peptides of protein X5 of SARS-CoV Urbani / Binding of serum 6 to linear peptides of protein N of SARS-CoV Urbani / Binding of serum 37 to linear peptides of protein N of SARS-CoV Urbani / Binding of serum 6 to linear peptide (PEPSCAN-ELISA) / Binding of serum 1a to looped/cyclic peptides of protein N of SARS-CoV Urbani / Binding of serum 1b to looped/cyclic peptides of protein N of SARS-CoV Urbani / Binding of serum 2 to looped/cyclic peptides of protein N of SARS-CoV Urbani / Binding of serum 6 to looped/cyclic peptides of protein N of SARS-CoV Urbani / Binding of serum 37 to looped/cyclic peptides of protein N of SARS-CoV Urbani / Binding of serum 62 to looped/cyclic peptides of protein N of SARS-CoV Urbani / Binding of serum London to looped/cyclic peptides of protein N of SARS-CoV Urbani / Binding of serum SARS-green to looped/cyclic peptides of protein N of SARS-CoV Urbani: unit not given here.

In the case of PVTLACFVLAAVYRI, in assay [1], the “Binding of Control Serum Blood-Bank to Looped peptides of the protein M of SARS-CoV Urbani” value was 0.6, the “Binding of Control serum Blood-bank to linear peptides of the protein M of SARS-CoV Urbani” value is listed as 0.5, the “Binding of Control serum LUMC to linear peptides of the protein M of SARS-CoV Urbani” value came to 0.2 and the “Binding of Control serum LUMC to looped peptides of the protein M of SARS-CoV Urbani” value is 0.7. In addition, in assay [2], the “Rabbit serum linear peptides” value was found to be 0.4 and the “Rabbit serum looped peptides” value was 0.3. Moreover, in assay [3], the “Binding of serum 1a to linear peptides of protein M of SARS-CoV Urbani” value came to 0.7, the “Binding of serum 1a to looped/cyclic peptides of protein M of SARS-CoV Urbani” value is reported as 0.7, the “Binding of serum 1b to linear peptides of protein M of SARS-CoV Urbani” value worked out at 0.5 and the “Binding of serum 1b to looped/cyclic peptides of protein M of SARS-CoV Urbani” value was determined as 0.6. In addition, in assay [3], the “Binding of serum 2 to linear peptides of protein M of SARS-CoV Urbani” value was determined as 0.5, the “Binding of serum 2 to looped/cyclic peptides of protein M of SARS-CoV Urbani” value was 0.6, the “Binding of serum 6 to linear peptides of protein M of SARS-CoV Urbani” value worked out at 0.3 and the “Binding of serum 6 to looped/cyclic peptides of protein M of SARS-CoV Urbani” value came out at 0.7. In addition, in assay [3], the “Binding of serum 37 to linear peptides of protein M of SARS-CoV Urbani” value is on record as 0.6, the “Binding of serum 37 to looped/cyclic peptides of protein M of SARS-CoV Urbani” value was 0.7, the “Binding of serum 62 to linear peptides of protein M of SARS-CoV Urbani” value stood at 0.7 and the “Binding of serum 62 to looped/cyclic peptides of protein M of SARS-CoV Urbani” value came out at 0.7. Further, in assay [3], the “Binding of serum London to linear peptides of protein M of SARS-CoV Urbani” value is recorded as 0.3, the “Binding of serum London to looped/cyclic peptides of protein M of SARS-CoV Urbani” value was determined as 0.2, the “Binding of serum SARS-green to linear peptides of protein M of SARS-CoV Urbani” value was 0.2 and the “Binding of serum SARS-green to looped/cyclic peptides of protein M of SARS-CoV Urbani” value turned out to be 0.2. In addition, in assay [3], the “Binding of serum SARS-yellow to linear peptides of protein M of SARS-CoV Urbani” value amounted to 0.0 and the “Binding of serum SARS-yellow to looped/cyclic peptides of protein M of SARS-CoV Urbani” value was determined as 0.6.
Consider QCINACRIIMRCWLC, for which, in assay [1], the “Binding of Control Serum Blood-Bank to Looped peptides” value is 0.6, the “Binding of Control serum Blood-bank to linear peptides” value amounted to 0.9, the “Binding of Control serum LUMC to linear peptides” value came to 0.7 and the “Binding of Control serum LUMC to looped peptides” value is 0.7. Further, in assay [2], the “Recognition of the peptide by the rabbit serum” value was “recognized”. Also, in assay [3], the “Binding of serum 1a to linear peptides of protein X1 of SARS-CoV Urbani” value came to 0.8, the “Binding of serum 1a to looped/cyclic peptide (PEPSCAN-ELISA)” value worked out at 0.6, the “Binding of serum 1b to linear peptides of protein X1 of SARS-CoV Urbani” value amounted to 0.6 and the “Binding of serum 1b to looped/cyclic peptide (PEPSCAN-ELISA)” value was determined as 0.4. In addition, in assay [3], the “Binding of serum 2 to linear peptides of protein X1 of SARS-CoV Urbani” value came to 0.5, the “Binding of serum 2 to looped/cyclic peptide (PEPSCAN-ELISA)” value is reported as 0.6, the “Binding of serum 6 to linear peptides of protein X1 of SARS-CoV Urbani” value stood at 0.8 and the “Binding of serum 6 to looped/cyclic peptide (PEPSCAN-ELISA)” value worked out at 0.8. Moreover, in assay [3], the “Binding of serum 37 to linear peptides of protein X1 of SARS-CoV Urbani” value is 0.7, the “Binding of serum 37 to looped/cyclic peptide (PEPSCAN-ELISA)” value was 0.6, the “Binding of serum 62 to linear peptides of protein X1 of SARS-CoV Urbani” value came out at 0.7 and the “Binding of serum 62 to looped/cyclic peptide (PEPSCAN-ELISA)” value was determined as 0.7. In assay [3], the “Binding of serum London to linear peptides of protein X1 of SARS-CoV Urbani” value stood at 0.4, the “Binding of serum London to looped/cyclic peptide (PEPSCAN-ELISA)” value came out at 1.4, the “Binding of serum SARS-green to linear peptides of protein X1 of SARS-CoV Urbani” value was found to be 0.2 and the “Binding of serum SARS-green to looped/cyclic peptide (PEPSCAN-ELISA)” value is on record as 0.2. In assay [3], the “Binding of serum SARS-yellow to linear peptides of protein X1 of SARS-CoV Urbani” value is listed as 0.3 and the “Binding of serum SARS-yellow to looped/cyclic peptide (PEPSCAN-ELISA)” value is on record as 0.4.
Consider QFICNLLLLFVTIYS, for which, in assay [1], the “Binding of Control Serum Blood-Bank to Looped peptides” value is recorded as 0.5, the “Binding of Control serum Blood-bank to linear peptides” value is recorded as 0.6, the “Binding of Control serum LUMC to linear peptides” value is 0.6 and the “Binding of Control serum LUMC to looped peptides” value is 0.5. In addition, in assay [2], the “Binding of a rabbit serum to linear peptides” value is given as 0.3 and the “Binding of a rabbit serum to looped peptides” value turned out to be 0.5. Moreover, in assay [3], the “Binding of serum 1a to linear peptides of protein X1 of SARS-CoV Urbani” value amounted to 0.6, the “Binding of serum 1a to looped/cyclic peptide (PEPSCAN-ELISA)” value is recorded as 0.5, the “Binding of serum 1b to linear peptides of protein X1 of SARS-CoV Urbani” value was 0.5 and the “Binding of serum 1b to looped/cyclic peptide (PEPSCAN-ELISA)” value amounted to 0.4. Also, in assay [3], the “Binding of serum 2 to linear peptides of protein X1 of SARS-CoV Urbani” value turned out to be 0.6, the “Binding of serum 2 to looped/cyclic peptide (PEPSCAN-ELISA)” value was 0.6, the “Binding of serum 6 to linear peptides of protein X1 of SARS-CoV Urbani” value is 0.4 and the “Binding of serum 6 to looped/cyclic peptide (PEPSCAN-ELISA)” value came to 0.3. Further, in assay [3], the “Binding of serum 37 to linear peptides of protein X1 of SARS-CoV Urbani” value is recorded as 0.5, the “Binding of serum 37 to looped/cyclic peptide (PEPSCAN-ELISA)” value was determined as 0.5, the “Binding of serum 62 to linear peptides of protein X1 of SARS-CoV Urbani” value was found to be 0.6 and the “Binding of serum 62 to looped/cyclic peptide (PEPSCAN-ELISA)” value is listed as 0.5. In assay [3], the “Binding of serum London to linear peptides of protein X1 of SARS-CoV Urbani” value amounted to 0.2, the “Binding of serum London to looped/cyclic peptide (PEPSCAN-ELISA)” value is listed as 0.2, the “Binding of serum SARS-green to linear peptides of protein X1 of SARS-CoV Urbani” value came out at 0.0 and the “Binding of serum SARS-green to looped/cyclic peptide (PEPSCAN-ELISA)” value worked out at 0.2. In addition, in assay [3], the “Binding of serum SARS-yellow to linear peptides of protein X1 of SARS-CoV Urbani” value was found to be 0.4 and the “Binding of serum SARS-yellow to looped/cyclic peptide (PEPSCAN-ELISA)” value turned out to be 0.5.
In the case of QFLYLYALIYFLQCI, in assay [1], the “Binding of Control Serum Blood-Bank to Looped peptides” value stood at 0.5, the “Binding of Control serum Blood-bank to linear peptides” value is 0.5, the “Binding of Control serum LUMC to linear peptides” value is 0.4 and the “Binding of Control serum LUMC to looped peptides” value worked out at 0.6. Further, in assay [2], the “Binding of a rabbit serum to linear peptides” value came out at 0.1 and the “Binding of a rabbit serum to looped peptides” value was 0.4. In assay [3], the “Binding of serum 1a to linear peptides of protein X1 of SARS-CoV Urbani” value is listed as 0.7, the “Binding of serum 1a to looped/cyclic peptide (PEPSCAN-ELISA)” value turned out to be 0.5, the “Binding of serum 1b to linear peptides of protein X1 of SARS-CoV Urbani” value is reported as 0.5 and the “Binding of serum 1b to looped/cyclic peptide (PEPSCAN-ELISA)” value is listed as 0.3. Besides, in assay [3], the “Binding of serum 2 to linear peptides of protein X1 of SARS-CoV Urbani” value was determined as 0.5, the “Binding of serum 2 to looped/cyclic peptide (PEPSCAN-ELISA)” value stood at 0.3, the “Binding of serum 6 to linear peptides of protein X1 of SARS-CoV Urbani” value is 0.4 and the “Binding of serum 6 to looped/cyclic peptide (PEPSCAN-ELISA)” value stood at 0.2. Moreover, in assay [3], the “Binding of serum 37 to linear peptides of protein X1 of SARS-CoV Urbani” value is on record as 0.6, the “Binding of serum 37 to looped/cyclic peptide (PEPSCAN-ELISA)” value stood at 0.5, the “Binding of serum 62 to linear peptides of protein X1 of SARS-CoV Urbani” value is 0.5 and the “Binding of serum 62 to looped/cyclic peptide (PEPSCAN-ELISA)” value was determined as 0.5. For the same sequence, in assay [3], the “Binding of serum London to linear peptides of protein X1 of SARS-CoV Urbani” value came to 0.2, the “Binding of serum London to looped/cyclic peptide (PEPSCAN-ELISA)” value was 0.2, the “Binding of serum SARS-green to linear peptides of protein X1 of SARS-CoV Urbani” value came to 0.2 and the “Binding of serum SARS-green to looped/cyclic peptide (PEPSCAN-ELISA)” value worked out at 0.2. For the same sequence, in assay [3], the “Binding of serum SARS-yellow to linear peptides of protein X1 of SARS-CoV Urbani” value turned out to be 0.5 and the “Binding of serum SARS-yellow to looped/cyclic peptide (PEPSCAN-ELISA)” value is 0.3.
